Assay results reported in patent US20030130180A1, “Utilization of an aminopeptidase inhibitor” (priority 2000, published 2003).

Tested on: tumor cells and immune cells
Experiment: Cell-biological experiments on blocking of polarization of tumor cells and immune cells
Assay type: cell-based
Conditions: general statement
From the text: By means of a method of simultaneously detecting a number of cell surface proteins, it has been established that aminopeptidases will control cell surface proteins which are not part of the class of proteolytic enzymes, but belong to the class of the adhesion molecules, which adhesion molecules—in a certain combination and geometric array—will be decisive for the polarization of the cells. Consequently, aminopeptidases appear to be superordinate control proteins in a protein network consisting of up to 30 different cell surface protein species which—through specific interaction with one another—will control polarization of tumor cells and other invasive cells such as immune cells and which are listed above. The inhibition of at least one aminopeptidase will lead to a reproducible modification of surface protein combinations on the cell surface which will always also involve a modification of CD13. […] The term polarization as used here shall denote a process in which a primarily spherical cell will transition into an oblong, elongated cell shape, via various intermediate states. This process which constitutes a change of shape controlled by the complex protein network is the prerequisite for cell migration, since only cells of oblong shape are capable of migrating. The polarization process therefore needs to precede all cell migration processes, including invasion. […]

CCCCC[C@H](CC(=O)NO)C(=O)N[C@H](C(=O)N1CCC[C@H]1CO)C(C)C [actinonin]
effectiveness as aminopeptidase inhibitor blocking polarization: particularly effective
